Assays:
[1] = tested on: formalin-induced rat paw oedema; assay: Formalin-induced paw oedema test (acute inflammation model); type: in vivo, Wistar rats; conditions: oral 5 mg/kg once daily for seven days; oedema 4 h after formalin; vs diclofenac sodium and celecoxib 5 mg/kg
Protocol: A freshly prepared 5% formalin solution (prepared from 37% formaldehyde and saline (Merck, Germany)) was used as a phlogistic agent. Test and reference compounds (5 mg/kg body weight) were dissolved in DMSO and given orally with gastric gavage once per day for seven consecutive days, whereas DMSO was administered to the control group. On the 8th day, the initial paw volume was determined by a Vernier calliper. Then, a subcutaneous injection of 40 μl formalin was introduced into the right hind paw of all groups under light ether anaesthesia. The paw volume was measured 4 h after the formalin injection and the oedema volume was calculated by the difference in paw volume before and 4 h after the formalin injection. The percentage inhibition of oedema (or % protection against inflammation) was calculated for each compound as previously reported[34]^,[35].

[2] = tested on: PMA/LPS-stimulated THP-1 (M1 macrophages); assay: Cytotoxicity assay on differentiated M1 macrophages (MTS); type: cell-based, human; conditions: PMA 24 h, LPS 24 h, then compound 24 h; up to 100 μM
Protocol: To confirm that the previous observations were a consequence of interference of the compounds with the differentiation process rather than a reduction in monocyte viability, THP-1 monocytes were incubated with different concentrations of the compound for 30 h. No difference in cell viability was detected. Moreover, the cytotoxic effects of the drugs on differentiated macrophages were evaluated. Following the incubation of THP-1 cells with 25 nM PMA for 24 h and 100 ng/ml LPS for 24 h, the differentiated macrophages were treated with different concentrations of the compounds for 24 h. Cell viability was assessed using MTS colorimetric cell viability kit (Abcam, Cambridge, UK).

15-LOX = molecular target: T1, 15-LOX (Glycine max, UniProt P08170); assay: In vitro 15-LOX inhibition assay (lipoxygenase inhibitor screening kit, Cayman); type: biochemical
T1 construct: purchased Cayman chemicals 760700
T1 sequence (P08170 1-839): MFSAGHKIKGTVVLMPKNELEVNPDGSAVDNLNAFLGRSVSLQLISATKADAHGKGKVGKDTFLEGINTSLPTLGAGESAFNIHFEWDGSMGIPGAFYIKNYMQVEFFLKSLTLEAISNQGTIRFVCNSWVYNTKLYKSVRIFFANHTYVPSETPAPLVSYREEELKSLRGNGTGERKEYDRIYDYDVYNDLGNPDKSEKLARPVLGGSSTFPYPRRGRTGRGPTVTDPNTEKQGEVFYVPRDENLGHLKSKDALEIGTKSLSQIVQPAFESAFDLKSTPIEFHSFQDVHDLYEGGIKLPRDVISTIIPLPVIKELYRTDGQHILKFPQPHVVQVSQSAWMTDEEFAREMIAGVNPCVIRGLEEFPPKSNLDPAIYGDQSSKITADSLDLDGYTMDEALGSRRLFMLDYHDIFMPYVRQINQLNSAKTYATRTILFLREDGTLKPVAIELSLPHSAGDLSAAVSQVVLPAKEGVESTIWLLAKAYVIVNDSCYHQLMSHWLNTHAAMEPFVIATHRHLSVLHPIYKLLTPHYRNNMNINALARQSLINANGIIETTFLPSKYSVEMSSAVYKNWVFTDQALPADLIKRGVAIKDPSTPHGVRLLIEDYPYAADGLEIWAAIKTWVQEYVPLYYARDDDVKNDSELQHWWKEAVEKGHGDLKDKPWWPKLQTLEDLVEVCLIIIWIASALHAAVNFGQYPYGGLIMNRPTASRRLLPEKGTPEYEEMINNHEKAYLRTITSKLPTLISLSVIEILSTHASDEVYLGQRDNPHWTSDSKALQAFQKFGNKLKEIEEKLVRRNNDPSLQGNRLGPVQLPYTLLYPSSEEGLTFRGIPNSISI
Protocol: (§1) Both assays were carried out in compliance with the manufacturer’s instructions and in accordance to prior studies[29]^,[33].
(§2) IC50 values (μM) and selectivity indices (SI) were calculated.

IL-1β = IL-1β protein expression by Western blotting; type: cell-based, human; conditions: 100 μM compound; PMA 24 h then LPS 72 h; normalised to GAPDH
Protocol: THP-1 monocytes were exposed to 100 μM of the test compounds, activated with 25 nM PMA for 24 h followed by 100 ng/ml LPS for 72 h. At the end of the incubation period, cells were harvested, proteins were extracted and SDS-PAGE electrophoresis, blotting, and antibody probing were conducted as described previously. Primary rabbit polyclonal antibodies to IL-1β, procaspase-3, and GAPDH were obtained from Abcam (Cambridge, UK). Clarity Western ECL substrate (BioRad, Hercules, CA, USA) was used to obtain a chemiluminescence signal captured by a Chemidoc imaging system (BioRad, Hercules, CA, USA). Band density was estimated using ImageJ software (National Institutes of Health, Bethesda, MD) and normalised to the GAPDH band density as a loading control.

[3] = tested on: cotton pellet-induced granuloma; assay: Cotton pellet-induced granuloma assay (chronic inflammation model); conditions: oral 5 mg/kg daily; pellets excised on 8th day; vs diclofenac sodium and celecoxib
ovine COX-1 = molecular target: T2, ovine COX-1 (Ovis aries, UniProt P05979); assay: In vitro COX-1 inhibition assay (colorimetric COX inhibitor screening kit, Cayman); type: biochemical; conditions: mean of three determinations
T2 construct: purchased Cayman Chemicals Inc. 560131
T2 sequence (P05979 25-600): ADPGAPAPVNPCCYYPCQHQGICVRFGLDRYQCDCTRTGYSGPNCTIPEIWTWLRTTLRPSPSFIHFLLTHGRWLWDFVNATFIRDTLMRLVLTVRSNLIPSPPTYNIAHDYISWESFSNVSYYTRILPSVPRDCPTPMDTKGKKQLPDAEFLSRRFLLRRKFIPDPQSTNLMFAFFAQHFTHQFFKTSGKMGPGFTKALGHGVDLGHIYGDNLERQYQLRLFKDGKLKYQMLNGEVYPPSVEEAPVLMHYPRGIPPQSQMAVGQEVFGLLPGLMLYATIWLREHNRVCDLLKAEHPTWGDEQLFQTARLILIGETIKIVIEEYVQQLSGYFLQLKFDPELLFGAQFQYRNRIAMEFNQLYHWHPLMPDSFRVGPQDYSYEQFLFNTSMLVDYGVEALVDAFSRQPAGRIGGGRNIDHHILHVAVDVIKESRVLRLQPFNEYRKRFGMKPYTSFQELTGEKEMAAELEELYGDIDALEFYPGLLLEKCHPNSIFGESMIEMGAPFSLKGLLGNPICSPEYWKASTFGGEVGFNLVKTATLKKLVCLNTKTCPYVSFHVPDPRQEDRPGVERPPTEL
Protocol: as §1, §2

Structure (SMILES): COc1ccc(-c2nn(-c3ccccc3)cc2/C=C2\SC(N3CCCCC3)=NC2=O)cc1 [Compound 7, (Z)-5-((3-(4-methoxyphenyl)-1-phenyl-1H-pyrazol-4-yl)methylene)-2-(piperidin-1-yl)thiazol-4(5H)-one]
- Inhibition of formalin-induced rat paw oedema (in words) [1]: as effective as either diclofenac or celecoxib
- M1 macrophage cell viability [2]: tended to slightly decrease
- 15-LOX inhibition, potency compared with quercetin (in words) (15-LOX): almost equipotent to quercetin
- IC50 (15-LOX; mean of three determinations): 3.52 µM
- IL-1β expression in PMA/LPS-challenged THP-1 (IL-1β): attenuating IL-1β production
- Inhibition of cotton pellet granuloma weight (in words) [3]: only superior to celecoxib
- IC50 (ovine COX-1): 10.3 µM
